Reference: article PMC9116245, “New 1,2,3-triazole linked ciprofloxacin-chalcones induce DNA damage by inhibiting human topoisomerase I& II and tubulin polymerization” (Journal of Enzyme Inhibition and Medicinal Chemistry, 2022)

Tests used:
[1] = tested on: tubulin polymerisation; experiment: Tubulin immunofluorescence microscopy in HCT116 cells; format: cell-based, human; details: HCT116, IC50 of compound, 36 h
Method: The process of tubulin polymerisation in the cells is important for the completion of mitosis and is targeted for cancer treatment. It has been reported that the suppression of tubulin polymerisation will arrest the cells at the G2/M and it eventually leads to cell death. To test the tubulin-disruptive effect of the CP hybrids, HCT116 cells were analysed by immunocytochemistry. HCT116 cells were incubated for 36 h with IC50 of the CP hybrids (4a, 4b, 4e, 4i, and 4j), nocodazole (a well-known tubulin polymerisation inhibitor, as a positive control), DMSO or Paclitaxel (a well-known tubulin polymerisation inducer, as a negative control), and tubulin was visualised by immunofluorescence microscopy. An antibody for α-tubulin was used. […] Moreover, a Western blot was performed to verify the tubulin polymerisation inhibition ability of the synthesised compounds (Figure 8(B)). The level of polymerised tubulin was decreased in HCT116 cells treated with IC50 values of CP hybrids 4a, 4b, 4e, 4i, 4j, or nocodazole.
HCT116 cells were cultured and treated with the IC50 of the potent compounds (4a, 4b, 4e, 4i, and 4j) or DMSO (control), fixed, permeabilized, and they were incubated with either γH2AX or α-tubulin antibody as the reported procedure in the literature. Confocal images were captured using a Confocal Microscope with a 63X objective. All images were processed using ImageJ software. See Supplementary Appendix A.

[2] = tested on: MDA-MB-468; experiment: NCI one-dose screen; format: cell-based; details: Homo sapiens; MDA-MB-468, 10 µM; read-out: Growth Percent
Method in brief: (§1)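 First, the NCI selected compounds for evaluation; then each was applied at 10 µM to 59 human cancer cell lines from nine subpanels, and growth percent was recorded under the standard protocol.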

[3] = tested on: U251; experiment: NCI one-dose screen; format: cell-based; details: Homo sapiens, U-251; U251, 10 µM; read-out: Growth Percent
Method in brief: as §1

[4] = tested on: K-562; experiment: NCI one-dose screen; format: cell-based; details: Homo sapiens, K562; K-562, 10 µM; read-out: Growth Percent
Method in brief: as §1

[5] = tested on: HT29; experiment: NCI one-dose screen; format: cell-based; details: Homo sapiens, HT-29; HT29, 10 µM; read-out: Growth Percent
Method in brief: as §1

[6] = tested on: RXF 393; experiment: NCI one-dose screen; format: cell-based; details: Homo sapiens; RXF 393, 10 µM; read-out: Growth Percent
Method in brief: as §1

[7] = tested on: 786-0; experiment: NCI one-dose screen; format: cell-based; details: Homo sapiens; 786-0, 10 µM; read-out: Growth Percent
Method in brief: as §1

[8] = tested on: UACC-257; experiment: NCI one-dose screen; format: cell-based; details: Homo sapiens; UACC-257, 10 µM; read-out: Growth Percent
Method in brief: as §1

[9] = tested on: OVCAR-8; experiment: NCI one-dose screen; format: cell-based; details: Homo sapiens; OVCAR-8, 10 µM; read-out: Growth Percent
Method in brief: as §1

[10] = tested on: LOX IMVI; experiment: NCI one-dose screen; format: cell-based; details: Homo sapiens, read-out: Growth Percent
Method in brief: as §1

[11] = tested on: SW-620; experiment: NCI one-dose screen; format: cell-based; details: Homo sapiens; SW-620, 10 µM; read-out: Growth Percent
Method in brief: as §1

[12] = tested on: SNB-19; experiment: NCI one-dose screen; format: cell-based; details: Homo sapiens; SNB-19, 10 µM; read-out: Growth Percent
Method in brief: as §1

[13] = tested on: MDA-MB-435; experiment: NCI one-dose screen; format: cell-based; details: Homo sapiens; MDA-MB-435, 10 µM; read-out: Growth Percent
Method in brief: as §1

[14] = tested on: DU-145; experiment: NCI one-dose screen; format: cell-based; details: Homo sapiens; DU-145, 10 µM; read-out: Growth Percent
Method in brief: as §1

[15] = tested on: HS 578T; experiment: NCI one-dose screen; format: cell-based; details: Homo sapiens, read-out: Growth Percent
Method in brief: as §1

[16] = tested on: NCI-H23; experiment: NCI one-dose screen; format: cell-based; details: Homo sapiens; NCI-H23, 10 µM; read-out: Growth Percent
Method in brief: as §1

[17] = tested on: SF-268; experiment: NCI one-dose screen; format: cell-based; details: Homo sapiens; SF-268, 10 µM; read-out: Growth Percent
Method in brief: as §1

[18] = tested on: PC-3; experiment: NCI one-dose screen; format: cell-based; details: Homo sapiens; PC-3, 10 µM; read-out: Growth Percent
Method in brief: as §1

[19] = tested on: OVCAR-4; experiment: NCI one-dose screen; format: cell-based; details: Homo sapiens; OVCAR-4, 10 µM; read-out: Growth Percent
Method in brief: as §1

[20] = tested on: EKVX; experiment: NCI one-dose screen; format: cell-based; details: Homo sapiens, read-out: Growth Percent
Method in brief: as §1

[21] = tested on: HCC-2998; experiment: NCI one-dose screen; format: cell-based; details: Homo sapiens; HCC-2998, 10 µM; read-out: Growth Percent
Method in brief: as §1

[22] = tested on: SN12C; experiment: NCI one-dose screen; format: cell-based; details: Homo sapiens, read-out: Growth Percent
Method in brief: as §1

[23] = tested on: UACC-62; experiment: NCI one-dose screen; format: cell-based; details: Homo sapiens; UACC-62, 10 µM; read-out: Growth Percent
Method in brief: as §1

[24] = tested on: NCI-H522; experiment: NCI one-dose screen; format: cell-based; details: Homo sapiens; NCI-H522, 10 µM; read-out: Growth Percent
Method in brief: as §1

[25] = tested on: A498; experiment: NCI one-dose screen; format: cell-based; details: Homo sapiens; A498, 10 µM; read-out: Growth Percent
Method in brief: as §1

[26] = tested on: OVCAR-5; experiment: NCI one-dose screen; format: cell-based; details: Homo sapiens; OVCAR-5, 10 µM; read-out: Growth Percent
Method in brief: as §1

[27] = tested on: HL-60(TB); experiment: NCI one-dose screen; format: cell-based; details: Homo sapiens, read-out: Growth Percent
[28] = tested on: COLO 205; experiment: NCI one-dose screen; format: cell-based; details: Homo sapiens; COLO 205, 10 µM; read-out: Growth Percent
Method in brief: as §1

Row | Structure (SMILES) | tubulin polymerisation, morphological changes by immunofluorescence [1] | activity at 10 µM [2] [%] | activity at 10 µM [3] [%] | activity at 10 µM [4] [%] | activity at 10 µM [5] [%] | activity at 10 µM [6] [%] | activity at 10 µM [7] [%] | activity at 10 µM [8] [%] | activity at 10 µM [9] [%] | activity at 10 µM [10] [%] | activity at 10 µM [11] [%] | activity at 10 µM [12] [%] | activity at 10 µM [13] [%] | activity at 10 µM [14] [%] | activity at 10 µM [15] [%] | activity at 10 µM [16] [%] | activity at 10 µM [17] [%] | activity at 10 µM [18] [%] | activity at 10 µM [19] [%] | activity at 10 µM [20] [%] | also measured
1 | O=C(/C=C/c1ccccc1)c1ccc(-n2cc(CN3CCN(c4cc5c(cc4F)c(=O)c(C(=O)O)cn5C4CC4)CC3)nn2)cc1 [Compound 4a, (E) 7-(4-((1–(4-Cinnamoylphenyl)-1H-1,2,3-triazol-4-yl)methyl)piperazin-1-yl)-1-cyclopropyl-6-fluoro-4-oxo-1,4-dihydroquinoline-3-carboxylic acid] | significant tubulin polymerisation inhibition | 72.5 | 98.4 | 101 | 90.8 | 72 | 87.9 | 96.7 | 95.1 | 55.4 | 90 | 98.2 | 96.3 | 104 | 80.6 | 83.5 | 85.3 | 83.9 | 102 | 88.5 | activity at 10 µM [21]: 86%; activity at 10 µM [22]: 103%; activity at 10 µM [23]: 90.5%; activity at 10 µM [24]: 89.2%; activity at 10 µM [25]: 76.7%; activity at 10 µM [26]: 103%; activity at 10 µM [27]: 99%; activity at 10 µM [28]: 110%
2 | COc1cc(/C=C/C(=O)c2ccc(-n3cc(CN4CCN(c5cc6c(cc5F)c(=O)c(C(=O)O)cn6C5CC5)CC4)nn3)cc2)cc(OC)c1OC [Compound 4j, (E)-1-cyclopropyl-6-fluoro-4-oxo-7–(4-((1–(4-(3-(3,4,5-trimethoxyphenyl)acryloyl)phenyl)-1H-1,2,3-triazol-4-yl)methyl)piperazin-1-yl)-1,4-dihydroquinoline-3-carboxylic acid] | significant tubulin polymerisation inhibition | -7.19 | 10.6 | 7.81 | 4.76 | 4.51 | 43.6 | 62 | 39.7 | -1.51 | 9.41 | 44.7 | 5.4 | 45.8 | 21.5 | 50.6 | 59.5 | 9.95 | 73.7 | 80 | activity at 10 µM [21]: -39.7%; activity at 10 µM [22]: 14.9%; activity at 10 µM [23]: 54.1%; activity at 10 µM [24]: 49.5%; activity at 10 µM [25]: 54.4%; activity at 10 µM [26]: 72.3%; activity at 10 µM [27]: 45%; activity at 10 µM [28]: 60.9%
